Assay results: patent publication US20030005927A1, “Process and device for inhalation of particulate medicaments” (priority 1996, published 2003)
“Also recorded” adds a separate entry of the source. Structures can show the parent of a compound that is named as a salt.

Assay: Spray drying of solutions; particle geometric diameter and hollow/solid structure by photomicrograph
Type: physicochemical
Conditions: for Geometric Diameter (average particle diameter) / Hollow or Solid: spray dried particles from aqueous solution; for Geometric Diameter (average particle diameter): VIRTIS spray dryer; for Hollow or Solid: photomicrographs
Description: Medicament powder of each of the two medicaments, albuterol sulfate and amiloride HCl (abbreviated herein as Alb S and Amil HCl, respectively), is employed in this example. Also, the excipient, lactose, is employed in this example. Aliquots of each of the medicaments, and also of lactose, are spray dried as follows.
15 g of Alb S (lot no. W 1946 FB) are dissolved in 300 ml of water to create a 5% solution. Similarly, 3.479 g of Amil HCl (lot no. 9007H 902) are diluted in water to 1000 ml to create a solution. Likewise, 15 g of lactose (lot no. 1NC25, 605 from Sheffield Products of Norwich, N.Y.) are diluted in water to 150 ml to create a solution.
Each solution is respectively spray dried using a VIRTIS™ (a spray dryer commercially available from The Virtis Company of Gardiner, N.Y.) with each of the air from the nozzle and from the blower set at its respective maximum value under the following conditions of temperature and rate, as summarized in Table A below: […]

Molecule	Geometric Diameter (average particle diameter)	Hollow or Solid (HCl)	Hollow or Solid	Hollow or Solid (listed as lactose)	average particle diameter of the largest particulate (spray dried, photomicrographs FIGS. 6 and 7)
N=C(N)NC(=O)c1nc(Cl)c(N)nc1N [Amil HCl, amiloride HCl]	1 to 5 μm	spherical hollow particulates; also recorded: hollow spheres			
OC[C@H]1O[C@@H](O[C@H]2[C@H](O)[C@@H](O)C(O)O[C@@H]2CO)[C@H](O)[C@@H](O)[C@H]1O (some centres unmarked) [Lactose, lactose]	2 μm		hollow spheres	spherical hollow particulates	about 17 μm
albuterol sulfate [Alb S]	1 to 5 μm		dimpled solid structures; also recorded: dimpled solids		
